In ChEMBL document CHEMBL1201862, “PubChem BioAssay data set” (2004):
Active and inactive are the calls of the source.

Tests used:
[1] = test system: HEK293; test: inhibition of NOD1-driven NF-kB reporter – cell-based, luminescence, uHTS, primary screen (AID 1578); assay type: functional; conditions: Homo sapiens
[2] = test system: HEK293; test: cells; assay type: functional, cell-based; conditions: Homo sapiens
[3] = test system: HEK293; test: cells; assay type: functional, cell-based; conditions: Homo sapiens; remark: listed apart in the source
[4] = biological target: Nucleotide-binding oligomerization domain-containing protein 2 (Homo sapiens, UniProt Q9HC29); test: inhibition of NOD2-driven NF-kB reporter – cell-based, luminescence, uHTS, HEK293 (AID 1566); assay type: functional
[5] = test system: HEK293; test: NOD2 signaling inhibitors in MDP-stimulated cells, cell-based, uHTS, luminescence (AID 2001); assay type: functional; conditions: Homo sapiens
[6] = test system: HEK293; test: cells; assay type: functional, cell-based; conditions: Homo sapiens; remark: listed apart in the source
[7] = biological target: Tumor necrosis factor (Homo sapiens, UniProt P01375); test: analog potency on TNFa NF-kB signaling – cell-based, revised, SAR follow-up (AID 2337); assay type: functional
[8] = biological target: T1, Nucleotide-binding oligomerization domain-containing protein 1 (Homo sapiens, UniProt Q9Y239); test: blockers of NOD1 pathway activity – revised, SAR follow-up (AID 2333); assay type: functional
T1 sequence (Q9Y239 whole entry): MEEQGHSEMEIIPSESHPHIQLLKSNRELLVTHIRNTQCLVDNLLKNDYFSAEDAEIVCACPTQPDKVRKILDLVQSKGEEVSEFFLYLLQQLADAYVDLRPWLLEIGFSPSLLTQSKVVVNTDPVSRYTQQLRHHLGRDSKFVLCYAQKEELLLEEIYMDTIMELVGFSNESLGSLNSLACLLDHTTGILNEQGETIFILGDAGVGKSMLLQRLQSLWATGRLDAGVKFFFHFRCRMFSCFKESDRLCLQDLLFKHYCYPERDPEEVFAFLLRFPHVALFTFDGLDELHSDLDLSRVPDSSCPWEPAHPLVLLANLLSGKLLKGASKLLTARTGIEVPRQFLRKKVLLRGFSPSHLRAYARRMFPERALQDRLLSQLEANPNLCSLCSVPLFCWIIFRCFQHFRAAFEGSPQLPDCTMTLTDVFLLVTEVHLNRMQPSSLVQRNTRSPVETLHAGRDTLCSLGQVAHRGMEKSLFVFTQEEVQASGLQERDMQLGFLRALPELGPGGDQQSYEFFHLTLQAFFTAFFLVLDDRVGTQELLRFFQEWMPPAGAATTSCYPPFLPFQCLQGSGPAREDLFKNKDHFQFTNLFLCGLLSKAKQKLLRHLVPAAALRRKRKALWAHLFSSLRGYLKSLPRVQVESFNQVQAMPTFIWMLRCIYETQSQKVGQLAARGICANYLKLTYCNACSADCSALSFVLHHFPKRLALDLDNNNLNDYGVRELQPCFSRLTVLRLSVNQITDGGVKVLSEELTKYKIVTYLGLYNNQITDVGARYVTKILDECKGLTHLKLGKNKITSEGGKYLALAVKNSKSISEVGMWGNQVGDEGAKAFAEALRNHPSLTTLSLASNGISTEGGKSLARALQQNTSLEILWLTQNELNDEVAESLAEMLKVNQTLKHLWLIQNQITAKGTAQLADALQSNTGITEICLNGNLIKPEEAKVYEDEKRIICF

[9] = test system: HEK293; test: cells; conditions: Homo sapiens
[10] = biological target: Ras and Rab interactor 1/Tyrosine-protein kinase ABL1 (Homo sapiens, UniProt P00519+Q13671); assay type: functional;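 further: biochemical TR-FRET dose-response test measuring inhibition of binding between Rin1 and Abl proteins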
[11] = test system: HEK293; test: cells; conditions: Homo sapiens; remark: listed apart in the source
[12] = test system: HEK293; test: cells; conditions: Homo sapiens; remark: listed apart in the source
[13] = test system: HEK293; test: cells; assay type: functional, cell-based; conditions: Homo sapiens; remark: listed apart in the source
[14] = biological target: T2, Nuclear receptor subfamily 0 group B member 1 (Homo sapiens, UniProt P51843); test: Luminescence-based cell-based high throughput dose response assay for inhibitors of the orphan nuclear receptor subfamily 0, group B, member 1 (DAX1; NR0B1). [Related pubchem assays (depositor defined):AID504766, AID504790]; assay type: functional
T2 sequence (P51843 whole entry): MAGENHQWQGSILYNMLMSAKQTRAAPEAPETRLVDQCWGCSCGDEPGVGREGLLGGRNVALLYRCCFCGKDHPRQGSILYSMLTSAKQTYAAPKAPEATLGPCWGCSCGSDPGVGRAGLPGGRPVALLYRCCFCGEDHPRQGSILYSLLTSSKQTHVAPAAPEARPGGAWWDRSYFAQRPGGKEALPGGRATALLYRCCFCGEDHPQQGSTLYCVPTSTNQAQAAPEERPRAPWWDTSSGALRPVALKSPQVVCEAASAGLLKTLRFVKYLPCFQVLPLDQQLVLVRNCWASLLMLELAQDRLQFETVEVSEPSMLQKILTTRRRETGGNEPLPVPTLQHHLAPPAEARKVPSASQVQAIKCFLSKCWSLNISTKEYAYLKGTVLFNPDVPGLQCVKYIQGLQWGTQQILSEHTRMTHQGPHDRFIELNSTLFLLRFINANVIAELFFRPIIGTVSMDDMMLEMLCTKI

[15] = test system: Escherichia coli; test: microbe, parasite or virus in culture
[16] = biological target: Tyrosine-protein kinase JAK3 (Homo sapiens, UniProt P52333); assay type: functional
[17] = biological target: BDNF/NT-3 growth factors receptor (Homo sapiens, UniProt Q16620); assay type: functional;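 further: NTRK2 measured as one member of a broad kinome-wide kinase profiling panel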
[18] = biological target: Calcium/calmodulin-dependent protein kinase type II subunit alpha (Homo sapiens, UniProt Q9UQM7); test: Navigating the Kinome. Panel member name: CAMK2A; assay type: functional
[19] = biological target: Glycogen synthase kinase-3 alpha (Homo sapiens, UniProt P49840); assay type: functional;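 further: GSK3A result taken from a broad kinome-wide kinase panel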
[20] = biological target: Calcium/calmodulin-dependent protein kinase type II subunit beta (Homo sapiens, UniProt Q13554); assay type: functional
[21] = biological target: Glycogen synthase kinase-3 beta (Homo sapiens, UniProt P49841); assay type: functional;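 further: value comes from a broad kinome profiling panel, with GSK3B as the panel member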
[22] = biological target: Dual specificity tyrosine-phosphorylation-regulated kinase 1A (Homo sapiens, UniProt Q13627); assay type: functional;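 further: measured against DYRK1A as one member of a broad kinome profiling panel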

Chain of BDNF/NT-3 growth factors receptor (Q16620 whole entry): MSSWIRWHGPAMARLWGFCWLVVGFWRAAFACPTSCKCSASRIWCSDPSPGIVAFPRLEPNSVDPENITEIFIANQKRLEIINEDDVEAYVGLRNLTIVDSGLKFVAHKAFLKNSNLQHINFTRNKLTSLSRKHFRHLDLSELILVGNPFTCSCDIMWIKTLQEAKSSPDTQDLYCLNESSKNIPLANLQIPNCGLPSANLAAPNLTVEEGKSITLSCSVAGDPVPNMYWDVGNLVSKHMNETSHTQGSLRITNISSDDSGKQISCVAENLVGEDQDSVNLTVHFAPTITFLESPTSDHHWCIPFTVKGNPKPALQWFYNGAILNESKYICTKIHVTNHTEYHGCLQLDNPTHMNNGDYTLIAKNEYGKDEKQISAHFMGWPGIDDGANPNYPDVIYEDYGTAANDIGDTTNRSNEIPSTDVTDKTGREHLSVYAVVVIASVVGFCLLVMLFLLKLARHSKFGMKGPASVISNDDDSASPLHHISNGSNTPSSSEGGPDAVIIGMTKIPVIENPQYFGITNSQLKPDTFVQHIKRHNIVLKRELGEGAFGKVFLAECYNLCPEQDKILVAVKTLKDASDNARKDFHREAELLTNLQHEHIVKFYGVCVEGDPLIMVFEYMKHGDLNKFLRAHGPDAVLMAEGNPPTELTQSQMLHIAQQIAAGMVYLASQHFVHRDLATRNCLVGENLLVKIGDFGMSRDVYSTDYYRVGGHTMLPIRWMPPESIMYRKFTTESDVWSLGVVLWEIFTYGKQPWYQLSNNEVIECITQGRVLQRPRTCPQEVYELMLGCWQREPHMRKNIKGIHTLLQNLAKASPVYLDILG
Chain of Ras and Rab interactor 1/Tyrosine-protein kinase ABL1 (P00519 whole entry): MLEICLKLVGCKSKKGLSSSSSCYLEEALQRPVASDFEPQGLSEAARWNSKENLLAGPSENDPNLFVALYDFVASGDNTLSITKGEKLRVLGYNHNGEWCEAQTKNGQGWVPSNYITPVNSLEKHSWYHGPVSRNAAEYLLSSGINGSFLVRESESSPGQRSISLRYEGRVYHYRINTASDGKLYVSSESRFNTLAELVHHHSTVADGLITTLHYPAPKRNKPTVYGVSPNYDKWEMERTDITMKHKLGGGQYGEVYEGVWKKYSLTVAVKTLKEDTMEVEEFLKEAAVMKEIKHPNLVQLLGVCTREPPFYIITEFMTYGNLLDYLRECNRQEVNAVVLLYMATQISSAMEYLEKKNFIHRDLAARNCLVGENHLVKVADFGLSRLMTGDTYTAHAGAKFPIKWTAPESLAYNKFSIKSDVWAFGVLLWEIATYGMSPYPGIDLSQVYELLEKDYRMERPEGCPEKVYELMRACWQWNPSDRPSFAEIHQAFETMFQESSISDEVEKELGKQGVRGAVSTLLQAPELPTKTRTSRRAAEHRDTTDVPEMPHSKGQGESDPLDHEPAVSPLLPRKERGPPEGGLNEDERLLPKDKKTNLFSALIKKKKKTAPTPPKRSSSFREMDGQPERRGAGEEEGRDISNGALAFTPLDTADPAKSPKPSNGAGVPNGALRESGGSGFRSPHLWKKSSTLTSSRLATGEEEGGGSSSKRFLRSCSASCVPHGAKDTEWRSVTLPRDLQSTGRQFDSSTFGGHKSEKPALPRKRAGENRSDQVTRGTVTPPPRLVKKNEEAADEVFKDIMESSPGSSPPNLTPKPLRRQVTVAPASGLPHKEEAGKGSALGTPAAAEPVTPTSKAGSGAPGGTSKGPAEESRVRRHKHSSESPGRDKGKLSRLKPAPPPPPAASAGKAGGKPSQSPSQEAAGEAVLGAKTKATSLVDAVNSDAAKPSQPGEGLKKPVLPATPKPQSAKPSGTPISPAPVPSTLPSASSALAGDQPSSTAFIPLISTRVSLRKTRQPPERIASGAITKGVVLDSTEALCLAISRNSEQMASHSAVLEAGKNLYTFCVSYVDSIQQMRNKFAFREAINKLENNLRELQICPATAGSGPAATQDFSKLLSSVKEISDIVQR
Chain of Ras and Rab interactor 1/Tyrosine-protein kinase ABL1 (Q13671 whole entry): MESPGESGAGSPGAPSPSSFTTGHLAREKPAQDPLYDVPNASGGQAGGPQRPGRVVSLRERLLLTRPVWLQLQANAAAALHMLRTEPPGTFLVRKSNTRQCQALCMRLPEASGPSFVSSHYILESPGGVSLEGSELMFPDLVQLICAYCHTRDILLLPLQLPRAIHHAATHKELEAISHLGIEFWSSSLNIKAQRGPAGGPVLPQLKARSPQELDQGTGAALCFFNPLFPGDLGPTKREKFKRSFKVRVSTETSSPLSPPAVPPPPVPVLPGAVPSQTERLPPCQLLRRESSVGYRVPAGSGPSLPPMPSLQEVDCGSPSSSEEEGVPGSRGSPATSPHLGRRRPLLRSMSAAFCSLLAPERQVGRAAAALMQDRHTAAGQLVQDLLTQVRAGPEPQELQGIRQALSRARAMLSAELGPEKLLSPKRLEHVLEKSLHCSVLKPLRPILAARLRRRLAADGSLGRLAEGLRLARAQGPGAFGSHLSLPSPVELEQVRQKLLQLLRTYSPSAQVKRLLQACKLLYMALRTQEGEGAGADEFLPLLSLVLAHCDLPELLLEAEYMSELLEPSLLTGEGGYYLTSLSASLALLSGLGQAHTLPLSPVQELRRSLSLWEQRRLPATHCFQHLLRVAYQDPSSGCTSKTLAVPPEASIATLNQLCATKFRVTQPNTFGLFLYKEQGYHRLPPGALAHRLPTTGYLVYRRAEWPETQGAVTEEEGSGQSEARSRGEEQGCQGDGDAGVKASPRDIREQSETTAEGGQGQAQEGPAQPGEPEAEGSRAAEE
Chain of Tyrosine-protein kinase JAK3 (P52333 whole entry): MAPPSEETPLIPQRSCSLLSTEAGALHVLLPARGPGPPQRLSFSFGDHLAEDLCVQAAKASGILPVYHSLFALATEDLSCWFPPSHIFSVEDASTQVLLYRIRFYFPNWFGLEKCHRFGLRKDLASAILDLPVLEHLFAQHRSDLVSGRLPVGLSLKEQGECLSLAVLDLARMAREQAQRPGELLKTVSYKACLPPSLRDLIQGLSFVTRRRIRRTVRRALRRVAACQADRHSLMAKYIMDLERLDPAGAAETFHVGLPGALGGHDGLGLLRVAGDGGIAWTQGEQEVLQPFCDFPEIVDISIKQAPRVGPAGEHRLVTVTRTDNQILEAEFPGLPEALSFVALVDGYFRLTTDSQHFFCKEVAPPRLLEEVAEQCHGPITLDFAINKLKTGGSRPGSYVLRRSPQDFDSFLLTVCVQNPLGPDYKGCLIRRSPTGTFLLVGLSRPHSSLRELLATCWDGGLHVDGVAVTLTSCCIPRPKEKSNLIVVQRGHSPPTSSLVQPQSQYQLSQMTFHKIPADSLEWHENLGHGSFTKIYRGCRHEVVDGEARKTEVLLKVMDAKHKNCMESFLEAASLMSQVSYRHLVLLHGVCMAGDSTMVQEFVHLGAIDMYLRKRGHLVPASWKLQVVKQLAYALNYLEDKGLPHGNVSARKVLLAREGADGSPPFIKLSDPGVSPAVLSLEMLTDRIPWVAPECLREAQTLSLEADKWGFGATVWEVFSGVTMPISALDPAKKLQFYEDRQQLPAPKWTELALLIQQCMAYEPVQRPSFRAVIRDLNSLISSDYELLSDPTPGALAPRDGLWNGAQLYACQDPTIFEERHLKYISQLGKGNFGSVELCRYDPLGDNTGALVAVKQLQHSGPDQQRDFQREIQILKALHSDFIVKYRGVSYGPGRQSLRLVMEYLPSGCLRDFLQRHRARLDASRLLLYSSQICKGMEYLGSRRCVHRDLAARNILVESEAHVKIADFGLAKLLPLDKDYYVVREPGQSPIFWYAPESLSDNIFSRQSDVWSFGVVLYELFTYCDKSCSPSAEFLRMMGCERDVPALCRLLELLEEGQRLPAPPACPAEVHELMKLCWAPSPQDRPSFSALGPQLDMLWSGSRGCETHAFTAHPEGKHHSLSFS
Chain of Calcium/calmodulin-dependent protein kinase type II subunit alpha (Q9UQM7 whole entry): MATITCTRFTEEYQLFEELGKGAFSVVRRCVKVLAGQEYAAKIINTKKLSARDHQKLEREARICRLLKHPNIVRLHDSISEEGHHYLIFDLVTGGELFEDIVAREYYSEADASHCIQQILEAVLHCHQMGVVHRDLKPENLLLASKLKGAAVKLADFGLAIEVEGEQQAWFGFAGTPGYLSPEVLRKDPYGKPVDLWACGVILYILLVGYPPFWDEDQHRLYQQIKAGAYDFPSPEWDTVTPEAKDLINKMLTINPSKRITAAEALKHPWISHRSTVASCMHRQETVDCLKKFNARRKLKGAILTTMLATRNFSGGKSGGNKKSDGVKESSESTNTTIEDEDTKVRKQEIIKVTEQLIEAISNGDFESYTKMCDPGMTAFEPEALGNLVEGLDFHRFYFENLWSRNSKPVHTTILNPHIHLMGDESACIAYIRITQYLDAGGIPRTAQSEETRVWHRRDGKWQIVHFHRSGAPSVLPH
Chain of Glycogen synthase kinase-3 alpha (P49840 whole entry): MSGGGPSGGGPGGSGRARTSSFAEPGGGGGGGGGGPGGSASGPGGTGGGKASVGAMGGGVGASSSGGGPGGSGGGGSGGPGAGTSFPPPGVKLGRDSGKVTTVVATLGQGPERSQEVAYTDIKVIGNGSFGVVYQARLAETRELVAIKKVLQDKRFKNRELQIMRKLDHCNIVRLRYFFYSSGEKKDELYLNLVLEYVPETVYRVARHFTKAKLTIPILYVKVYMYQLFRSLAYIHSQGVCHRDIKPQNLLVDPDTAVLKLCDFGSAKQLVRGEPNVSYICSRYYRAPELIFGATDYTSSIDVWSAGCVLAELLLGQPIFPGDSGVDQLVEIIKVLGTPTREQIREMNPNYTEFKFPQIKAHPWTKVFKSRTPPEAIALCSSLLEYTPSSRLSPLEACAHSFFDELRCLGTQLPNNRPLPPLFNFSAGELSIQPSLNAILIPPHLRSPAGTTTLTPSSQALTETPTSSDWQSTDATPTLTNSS
Chain of Tumor necrosis factor (P01375 whole entry, the tested form may be a part): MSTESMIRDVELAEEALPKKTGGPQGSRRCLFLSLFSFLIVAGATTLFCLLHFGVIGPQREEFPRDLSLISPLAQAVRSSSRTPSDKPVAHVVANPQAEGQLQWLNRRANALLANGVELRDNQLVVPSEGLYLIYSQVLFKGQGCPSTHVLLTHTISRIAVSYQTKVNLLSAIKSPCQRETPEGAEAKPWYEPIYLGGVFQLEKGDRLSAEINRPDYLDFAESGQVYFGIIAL

In the case of `COc1ccc(CN(C)S(=O)(=O)c2nnc(NC(=O)c3cccc(F)c3)s2)cc1`, the EC50 [1] was 1.8 µM (active), the IC50 [2] was 17.1 µM (active) and the IC50 [3] was > 20 µM (inactive). For the same molecule, the EC50 [4] was 12.7 µM (active), the IC50 [5] was 12.3 µM (inactive) and the IC50 [6] was > 20 µM (inactive). For the same molecule, the IC50 [7] was 8.03 µM (active), the IC50 [8] was 6.74 µM (active) and the IC50 [9] was > 20 µM (inactive).
In the case of `CC[C@]12c3[nH]c4ccc(OC)cc4c3CCN1C(=O)C(CC(=O)NCC13C[C@H]4C[C@@H](C1)C[C@@H](C3)C4)C[C@@H]2C(=O)N1CCN(C(=O)c2ccco2)CC1` (some centres undefined), the IC50 [10] was 4.2 µM (active), the EC50 [11] was > 59.6 µM (inactive) and the EC50 [12] was > 59.6 µM (inactive).
For `O=C(NCc1ccco1)/C(=C\C=C\c1ccccc1)NC(=O)c1ccco1`, the IC50 [13] was > 67.5 µM (inactive) and the IC50 [14] was > 67.5 µM (inactive).
For `CC1=C(C(=O)OCC2CCCO2)C(c2coc3ccc(Cl)cc3c2=O)C2=C(O)CCCC2=N1` (centres undefined), the IC50 [13] was > 67.5 µM (inactive) and the IC50 [14] was > 67.5 µM (inactive).
For `C=CCC[C@H](Cc1ccc(F)cc1)C(=O)OC[C@@H](C)NC(=O)[C@H](CC=C)CC(=O)NCCO`, the AC50 [15] was > 150 µM (inactive).
With `Clc1cccc(Nc2nc(N3CCOCC3)nc(-n3cccn3)n2)c1` the Ki [16] was 3.16 µM (active), the Ki [17] was 3.16 µM (active) and the Ki [18] was 2.51 µM (active).
In the case of `O=C1CN=C(c2cccc(Cl)c2)c2c(sc3c2CCCC3)N1`, the Ki [19] was 3.98 µM (active), the Ki [20] was 6.31 µM (active) and the Ki [21] was 3.16 µM (active). For the same molecule, the Ki [22] was 2.51 µM (active).
